Tests used:
[1] = system: A2780 cells; test: Carboplatin IC50 in platinum sensitive cell line; format: cell-based; settings: read-out: IC50 dose of carboplatin
Description: (§1) Considering the synergy described above and that the Hedgehog pathway is associated with cancer stem cell properties. In the effect of BMS-833923 plus carboplatin in two isogenic ovarian cancer cell lines specifically designed to evaluate platinum resistance mechanisms: A2780 (platinum sensitive) & A2780/CP70 (platinum resistant). Each cell line was evaluated to determine the IC50 dose of carboplatin to ensure a discernable difference in platinum treatment could be determined (FIG. 11A). The A2780/CP70 cell line required a 4-fold increase in carboplatin to reach IC50 (A2780/CP70=400 μM; A2780=100 μM). […] (FIG. 11B and FIG. 11C).

[2] = system: A2780 xenografts; test: Xenograft tumor growth, carboplatin-sensitive model; format: in vivo; settings: SCID mice; BMS-833923 100 mg/kg i.p. daily, Carboplatin 40 mg/kg i.p. twice a week, two weeks
Description: (§2) Female SCID mice 6-8 weeks old were inoculated i.p. with 5×10^6 A2780 or A2780/CP70 cells suspended in 200 μL PBS (PH 7.4). Seven days later when the tumor reached a size of greater than 150 mm^3, the mice were randomly divided into 4 groups (8 mice per group) as follows: (1) PBS-treated control; (2) BMS-833923 alone (100 mg/kg, i.p. daily, two weeks); (3) Carboplatin alone (40 mg/kg, i.p. twice a week, two weeks); (4) Combination of BMS-833923 and Carboplatin treatment. Mice were weighed and tumor diameters were measured with calipers every 2-3 days for 20 days. The tumor volumes (mm^3) were calculated as (W^2×L)/2, where W and L are the minor and major diameters (in millimeters), respectively.
(§3) Xenograft experiments were performed as described above. Carboplatin was dosed days 7, 11, 14, 18; BMS-833923 was dosed days 8 through 20. The experiment was terminated due to excessive tumor size in vehicle and BMS-833923 treatment groups.

[3] = system: A2780/CP70 cells; test: Carboplatin IC50 with and without BMS-833923 in platinum resistant cell line; format: cell-based
Description: as §1

[4] = Percent body weight change in xenograft experiments; format: in vivo, SCID mice; settings: xenograft mice; BMS-833923 100 mg/kg i.p. daily, Carboplatin 40 mg/kg i.p. twice a week
Description: as §2
Xenograft experiments were performed as described above. […] However, under such dosage (100 mg/kg, i.p. daily, for two weeks), treatment with BMS-833923 appeared to have little effect on the growth of A2780 or A2780/CP70 xenografts in vivo (FIG. 13). […] However, this dosage has little effect on the growth of CP2780 xenografts in vivo.

[5] = MTD for combination therapy; format: in vivo; settings: BMS-833923 + carboplatin given together; previously demonstrated
Source text: Treatment with BMS-833923 appeared to have little effect on the growth of A2780 xenografts in vivo.

[6] = system: SKOV3 cells; test: MTS cell survival with BMS-833923 plus chemotherapy, Calcusyn combination index; format: cell-based
Description: An MTS in vitro assay was performed using chemotherapy agents commonly used for ovarian cancer (carboplatin, paclitaxel, gemcitabine, topotecan and liposomal doxorubicin) with or without BMS-833923. Ovarian cancer cells ES2, SKOV3, OV90 and TOV112D were seeded at a density of 4,000 cells/well in 96-well tissue culture plates. The following day, fresh medium was added to each well and treated with IC50 concentrations of BMS-833923 as well as the aforementioned chemotherapies and kept at 37° C. in a humidified 5% CO2 atmosphere. Every 24 hr, 20 μl/well of MTS reagent were added in 96 well plates and stored in 37° C. incubator for about 3 hr followed by absorbance reading at 490 nm. The assay was carried out up to 72 hrs at various concentrations described herein.
With a cross-diagonal multidrug treatment design, the combination index (CI) was calculated to determine mathematical synergy using the median effect method per Calcusyn software (Biosoft, Ferguson, Mo.). This software utilizes multiple drug dose-effect calculations using the Median Effect methods (Chou T. C., et al., Trends Pharmacol. Sci. 4, 450-454). […] The fraction of cells affected (Fa) by carboplatin and BMS-833923 was used to calculate dose response curves and the CI. Statistically Calcusyn quantifies phenomena such as synergism vs. additive effects as well as inhibition (antagonism). Calcusyn software defines synergy as a CI value<1 with the extent of synergism stratified as follows: Possible Synergy: 1.0-0.91; Moderate Synergy: […]; and Clear Synergy: 0.7-0.3. A CI=1 may be indicative of additivity; a CI>1 may be indicative of antagonism.
Combination indices were calculated to determine mathematical synergy using the median effect method per Calcusyn software (Biosoft, Ferguson, Mo.) as described above. Monolayers of SKOV3 cells were contacted with various chemotherapeutic agents, and BMS-833923 in combination with various chemotherapeutic agents. The chemotherapeutic agents included Carboplatin, Taxol™, Gemzar™, Topotecan (Hycamtim™), and Doxil™. The percentage survival of the contacted SKOV3 cells was measured over 72 hours. Synergistic effects were calculated statistically using Calcusyn™ Software. A combination index (CI) less than 1 indicates synergy; a CI equal to 1 indicates additivity; a CI greater than 1 indicated antagonism.
Combination indices were calculated to determine mathematical synergy using the median effect method per Calcusyn software (Biosoft, Ferguson, Mo.) as described above. […] Per prior definitions this represents Clear Synergy defined as CI<0.7. This level of synergy would result in a 2- to 14-fold reduction of carboplatin dose required with the addition of BMS-833923. (Table 5 and FIG. 9).
The dose reduction index (DRI) was determined for experimental values using the Calcusyn software package, with the relative CI and the fraction affected to determine the relative reduction in a dose to achieve similar effects with a single agent (Table 6).

[7] = system: SHH; test: Quantitative real time PCR in carboplatin treated SKOV3 cells; format: cell-based; settings: SKOV3, various concentrations of carboplatin
Description: SKOV3 cells were treated with various concentrations of carboplatin and the levels of SHH, Smo, PTCH, and Gli1 determined using quantitative real time PCR. Carboplatin treatment unregulated SHH (FIG. 14).

[8] = system: CP2780 xenografts; test: Xenograft tumor growth, carboplatin-resistant model; format: in vivo; settings: SCID mice; BMS-833923 100 mg/kg i.p. daily, Carboplatin 40 mg/kg i.p. twice a week, two weeks
Description: as §2, §3
The CP2780 was derived from the A2780 Ovarian tumor xenograft model by selection for resistance to cisplatin. The CP2780 growth appeared to be more robust than observed for parental A2780 model (FIG. 12B). Average tumor volume doubling time for CP2780 was estimated at 2 days. Doubling time for parental A2780 tumor model was estimated at 3 days. […]

**Q.** For `N.N.O=C([O-])C1(C(=O)[O-])CCC1.[Pt+2]` [Carboplatin, carboplatin], which IC50 [1] is on record?
**A.** 100 µM

**Q.** And the “effect on growth of A2780 xenografts in vivo” value [2]?
**A.** inhibited growth

**Q.** What about the “increase in carboplatin to reach IC50, A2780/CP70 versus A2780” value [3] of the same compound?
**A.** 4 fold

**Q.** What about the IC50 ([3]; A2780/CP70 (platinum resistant), read-out: IC50 dose of carboplatin) of the same compound?
**A.** 400 µM

**Q.** And the “Percent body weight change” value [4]?
**A.** Combination<Carboplatin alone<BMS-833923 alone

**Q.** What about the “MTD for combination therapy” value [5] of the same compound?
**A.** 40 mg/kg

**Q.** What about the “Carboplatin DRI” value ([6]; fraction affected 16.6%) of the same compound?
**A.** 14.869

**Q.** And the “Carboplatin single agent dose to achieve the fraction affected” value ([6]; fraction affected 16.6%)?
**A.** 892.1349 µM

**Q.** What about the “Carboplatin DRI” value ([6]; fraction affected 29.1%) of the same compound?
**A.** 8.06e+006

**Q.** What about the “Carboplatin single agent dose to achieve the fraction affected” value ([6]; fraction affected 29.1%) of the same compound?
**A.** 5.642e+08 µM

**Q.** What about the “Carboplatin DRI” value ([6]; fraction affected 38.4%) of the same compound?
**A.** 2.07e+010

**Q.** What about the “Carboplatin single agent dose to achieve the fraction affected” value ([6]; fraction affected 38.4%) of the same compound?
**A.** 1.243e+12 µM

**Q.** And the “Carboplatin DRI” value ([6]; fraction affected 41.8%)?
**A.** 2.45e+011

**Q.** And the “Carboplatin single agent dose to achieve the fraction affected” value ([6]; fraction affected 41.8%)?
**A.** 1.716e+13 µM

**Q.** And the “SHH mRNA level” value [7]?
**A.** unregulated

**Q.** And the “effect on growth of CP2780 (A2780/CP70) xenografts in vivo” value [8]?
**A.** little effect
